Where no end group is shown, it is not given here.
System: antibodies in cerebrospinal fluid (CSF) and sera
Test: Dot-blot analysis of CSF and sera for antibodies to CNP 173-184 peptide
Type: binding, human
Conditions: for patients whose CSF had antibodies to the peptide: data not shown
Procedure: Cerebrospinal fluid (CSF) and sera from MS patients and controls were analyzed for antibodies to the peptide derived from CNP isoform 2 (corresponding to amino acids 173-184) using dot-blot analyses. Samples from nine MS patients and five patients with other neurologic diseases (OND) were analyzed. The CNP 173-184 peptide coupled to BSA was adsorbed onto nitrocellulose membranes. Control wells received BSA alone. Two dilutions of paired spinal fluids and sera were added to the wells and the amount of antibody binding determined using peroxidase labeled anti-human IgG and an enhanced chemiluminescent assay (ECL Western Blotting Kit; Amersham International, Plc., Buckinghamshire, England). Using the public domain program, Image 1.40 (available from NIH), the integrated densities of the dots in the CNP 173-184 peptide wells and BSA wells were determined.

With LKKLKPGLEKDF [CNP 173-184 peptide] the “patients whose CSF had antibodies to the peptide” value (MS patients) was 5/9, the “patients whose CSF had antibodies to the peptide” value (OND patients) was 0/5 and the “densities in peptide wells relative to BSA wells” value (MS CSF) was “approximately twofold”. For the same sequence, the “number of patients with antibodies in sera” value (MS patients) was 3 and the “number of patients with antibodies in sera” value (OND patients) was 1.
